Source: ChEMBL document CHEMBL5113492, “Design, synthesis, and biological evalution of bifunctional inhibitors against Hsp90-HDAC6 interplay” (Eur J Med Chem, 2022)
Active and inactive are the calls of the source. The calls are words filed in the database; no cut-off is given here.

What was measured:
Histone deacetylase 3 = Histone deacetylase 3 (Homo sapiens, UniProt O15379); assay: Inhibition of HDAC3 (unknown origin) using fluorogenic substrate incubated for 30 mins by fluorescence plate reader
[1] = molecular target: T1, Heat shock protein HSP90 (Homo sapiens) (UniProt P07900+P08238); assay: Inhibition of HSP90 in human NCI-H1975 cells assessed as downregulation of EGFR expression at 0.05 to 2 uM incubated for 24 hrs by western blot analysis; type: cell-based; conditions: dose 0.05-2 µM, DDE = dose-dependent effect
[2] = molecular target: T1, Heat shock protein HSP90 (Homo sapiens); assay: Inhibition of HSP90 in human NCI-H1975 cells assessed as downregulation of Met expression at 0.05 to 2 uM incubated for 24 hrs by western blot analysis; type: cell-based; conditions: dose 0.05-2 µM, DDE = dose-dependent effect
[3] = molecular target: T1, Heat shock protein HSP90 (Homo sapiens); assay: Inhibition of HSP90 in human NCI-H1975 cells assessed as downregulation of Akt expression at 0.05 to 2 uM incubated for 24 hrs by western blot analysis; type: cell-based; conditions: dose 0.05-2 µM, DDE = dose-dependent effect
[4] = molecular target: T1, Heat shock protein HSP90 (Homo sapiens); assay: Inhibition of HSP90 in human NCI-H1975 cells assessed as downregulation of Her2 expression at 2 uM incubated for 24 hrs by western blot analysis; type: cell-based
[5] = molecular target: T1, Heat shock protein HSP90 (Homo sapiens); assay: Inhibition of HSP90 in human NCI-H1975 cells assessed as downregulation of EGFR expression at 2 uM incubated for 24 hrs by western blot analysis; type: cell-based
[6] = molecular target: T1, Heat shock protein HSP90 (Homo sapiens); assay: Inhibition of HSP90 in human NCI-H1975 cells assessed as downregulation of CDK-4 expression at 2 uM incubated for 24 hrs by western blot analysis; type: cell-based
[7] = molecular target: Histone deacetylase 1 (Homo sapiens) (UniProt Q13547); assay: Inhibition of HDAC1 in human NCI-H1975 cells assessed as increase in acetylation of Histone H3 at 2 uM incubated for 24 hrs by western blot analysis; type: cell-based
[8] = molecular target: T2, Protein deacetylase HDAC6 (Homo sapiens) (UniProt Q9UBN7); assay: Inhibition of HDAC6 in human NCI-H1975 cells assessed as increase in acetylation of HSP90-Lys 294 residue at 2 uM incubated for 24 hrs by western blot analysis; type: cell-based
T2 sequence (whole entry): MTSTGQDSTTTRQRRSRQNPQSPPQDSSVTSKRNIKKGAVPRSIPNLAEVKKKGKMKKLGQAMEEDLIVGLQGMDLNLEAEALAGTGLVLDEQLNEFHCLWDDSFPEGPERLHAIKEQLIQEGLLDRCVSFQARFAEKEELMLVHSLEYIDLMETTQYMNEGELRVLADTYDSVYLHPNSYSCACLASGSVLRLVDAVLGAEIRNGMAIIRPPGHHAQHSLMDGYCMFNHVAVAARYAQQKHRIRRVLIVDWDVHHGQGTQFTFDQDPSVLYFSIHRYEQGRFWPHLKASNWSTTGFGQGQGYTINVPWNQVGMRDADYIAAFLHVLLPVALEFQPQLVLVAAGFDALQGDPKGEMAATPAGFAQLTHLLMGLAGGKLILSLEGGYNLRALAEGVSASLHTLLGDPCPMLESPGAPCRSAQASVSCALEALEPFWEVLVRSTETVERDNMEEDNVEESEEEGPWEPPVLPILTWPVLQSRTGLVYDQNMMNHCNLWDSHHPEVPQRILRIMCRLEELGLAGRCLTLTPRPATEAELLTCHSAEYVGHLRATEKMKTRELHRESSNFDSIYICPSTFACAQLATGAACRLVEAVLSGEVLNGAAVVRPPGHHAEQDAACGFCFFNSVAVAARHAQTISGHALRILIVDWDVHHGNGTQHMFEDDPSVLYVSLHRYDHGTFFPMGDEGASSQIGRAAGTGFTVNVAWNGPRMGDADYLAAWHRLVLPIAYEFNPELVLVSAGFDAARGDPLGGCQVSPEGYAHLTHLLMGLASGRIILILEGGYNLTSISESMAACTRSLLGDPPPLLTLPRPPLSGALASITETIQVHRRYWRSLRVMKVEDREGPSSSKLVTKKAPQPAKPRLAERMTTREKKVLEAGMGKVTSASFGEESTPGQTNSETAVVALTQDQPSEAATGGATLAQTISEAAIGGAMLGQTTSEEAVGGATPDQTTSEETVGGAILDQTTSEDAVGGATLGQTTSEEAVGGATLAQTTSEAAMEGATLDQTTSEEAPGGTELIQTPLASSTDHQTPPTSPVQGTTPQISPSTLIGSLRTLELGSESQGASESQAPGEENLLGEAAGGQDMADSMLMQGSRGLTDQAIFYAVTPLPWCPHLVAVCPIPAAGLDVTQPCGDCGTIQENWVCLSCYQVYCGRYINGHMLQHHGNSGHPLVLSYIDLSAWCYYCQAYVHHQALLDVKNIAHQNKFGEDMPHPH

NCI-H1975 [9] = assay: Induction of apoptosis in human NCI-H1975 cells assessed as late apoptotic cells at 2 uM incubated for 24 hrs by Annexin-V/propidium iodide staining based flow cytometry analysis; type: functional
NCI-H1975 [10] = assay: Induction of apoptosis in human NCI-H1975 cells assessed as caspase-8 cleavage at 0.05 to 2 uM incubated for 24 hrs by western blot analysis; type: functional, cell-based; conditions: dose 0.05-2 µM, DDE = dose-dependent effect
NCI-H1975 [11] = assay: Induction of apoptosis in human NCI-H1975 cells assessed as PARP cleavage at 0.05 to 2 uM incubated for 24 hrs by western blot analysis; type: functional, cell-based; conditions: dose 0.05-2 µM, DDE = dose-dependent effect
NCI-H1975 [12] = assay: Antitumor activity against NSG mouse xenografted with human NCI-H1975 cells assessed as reduction on tumor growth at 25 mg/kg,ip measured after 2 weeks; type: functional, organism-based
Mus musculus [13] = assay: In vivo inhibition of HSP90 in human NCI-H1975 cells xenografted with NSG mouse assessed as downregulation of EGFR expression at 25 mg/kg,ip measured after 6 weeks by immunohistochemistry analysis; type: functional, organism-based
Mus musculus [14] = assay: In vivo inhibition of HDAC1 in human NCI-H1975 cells xenografted with NSG mouse assessed as increase in acetylation of Histone H3 at 25 mg/kg,ip measured after 6 weeks by immunohistochemistry analysis; type: functional, organism-based
Mus musculus [15] = assay: In vivo inhibition of HDAC1 in human NCI-H1975 cells xenografted with NSG mouse assessed as increase in acetylation of Histone H3 at 50 mg/kg,ip measured after 6 weeks by immunohistochemistry analysis; type: functional, organism-based
[16] = Toxicity in NSG mouse xenografted with human NCI-H1975 cells assessed as change in number of retina at 25 mg/kg,ip measured after 6 weeks by H and E staining based assay; type: organism-based; conditions: in vivo, 1008 h
[17] = Toxicity in NSG mouse xenografted with human NCI-H1975 cells assessed as change in structure of retina at 25 mg/kg,ip measured after 6 weeks by H and E staining based assay; type: organism-based; conditions: in vivo, 1008 h
[18] = Toxicity in NSG mouse xenografted with human NCI-H1975 cells assessed as change in structure of retina at 50 mg/kg,ip measured after 6 weeks by H and E staining based assay; type: organism-based; conditions: in vivo, 1008 h
[19] = Toxicity in NSG mouse xenografted with human NCI-H1975 cells assessed as change in body weight at 25 mg/kg,ip measured after 6 weeks; type: organism-based; conditions: in vivo, 1008 h
[20] = Toxicity in NSG mouse xenografted with human NCI-H1975 cells assessed as change in body weight at 50 mg/kg,ip measured after 6 weeks; type: organism-based; conditions: in vivo, 1008 h

Sequence of Histone deacetylase 3 (O15379 whole entry): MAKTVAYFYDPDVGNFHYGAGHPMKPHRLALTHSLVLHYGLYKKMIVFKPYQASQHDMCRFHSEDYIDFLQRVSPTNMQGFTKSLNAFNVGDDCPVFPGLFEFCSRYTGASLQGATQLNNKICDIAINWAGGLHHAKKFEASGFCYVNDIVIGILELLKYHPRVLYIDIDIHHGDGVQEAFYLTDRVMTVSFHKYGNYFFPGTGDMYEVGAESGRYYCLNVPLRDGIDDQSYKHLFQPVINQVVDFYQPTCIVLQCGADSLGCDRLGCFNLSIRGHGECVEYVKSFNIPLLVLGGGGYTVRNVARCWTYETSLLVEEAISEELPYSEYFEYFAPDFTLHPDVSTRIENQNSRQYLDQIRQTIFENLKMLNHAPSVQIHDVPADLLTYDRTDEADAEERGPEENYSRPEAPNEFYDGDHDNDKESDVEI
Sequence of Histone deacetylase 1 (Homo sapiens) (Q13547 whole entry): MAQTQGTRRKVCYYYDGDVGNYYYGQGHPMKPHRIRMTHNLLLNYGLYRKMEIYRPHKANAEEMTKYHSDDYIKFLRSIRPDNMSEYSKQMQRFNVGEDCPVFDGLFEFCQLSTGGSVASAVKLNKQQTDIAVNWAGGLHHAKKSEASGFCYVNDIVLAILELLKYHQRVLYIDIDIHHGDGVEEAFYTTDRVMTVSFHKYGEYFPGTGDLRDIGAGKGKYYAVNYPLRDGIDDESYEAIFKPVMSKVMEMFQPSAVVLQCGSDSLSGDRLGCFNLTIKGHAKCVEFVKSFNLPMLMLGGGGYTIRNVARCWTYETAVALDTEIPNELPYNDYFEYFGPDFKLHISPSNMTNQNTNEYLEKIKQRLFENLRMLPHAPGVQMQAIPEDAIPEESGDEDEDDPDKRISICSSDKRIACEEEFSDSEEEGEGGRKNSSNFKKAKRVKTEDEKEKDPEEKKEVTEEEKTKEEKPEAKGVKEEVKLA

IC50 (Histone deacetylase 3): 1540 nM | inhibition [1]: Dde | inhibition [2]: Dde | inhibition [3]: Dde | inhibition [4]: Active | inhibition [5]: Active | inhibition [6]: Active | inhibition [7]: Active | inhibition [8]: Active
SMILES: CC(C)c1cc(C(=O)N(C)Cc2ccc(C(=O)NO)cc2)c(O)cc1O
Activity (NCI-H1975 [9]): 9.01% | Activity (NCI-H1975 [10]): Dde | Activity (NCI-H1975 [11]): Dde | Activity (NCI-H1975 [12]): Active | inhibition (Mus musculus [13]): Active | inhibition (Mus musculus [14]): Active | inhibition (Mus musculus [15]): Active | Activity [16]: Non-Toxic | Activity [17]: Non-Toxic | Activity [18]: Non-Toxic | Activity [19]: Non-Toxic | Activity [20]: Non-Toxic
